# Experiments:
# N-RasMA93 cells = assay: F-actin reorganization of N-RasMA93 leukemia cells; assay type: cell-based, human; details: in vitro
# Protocol: FIG. 5A. SDF-1α induced F-actin polymerization without or with gradient CASIN pre-treatments was determined by MFI using FACS analysis.
# (§1) Like normal HSCs, their malignant counterpart, leukemia initiating cells (LICs) reside in their BM niches that provide the structural and physiological conditions supporting their survival and growth. LICs are resistant to traditional chemotherapy by interacting with their BM microenvironment, which are the culprits of leukemia relapses after a period of remission induced by chemotherapy. Detachment of LICs from their niche by CASIN would be a valuable supplementary therapy to the traditional cancer therapies (e.g., chemotherapies). First of all, in vitro effects of CASIN were examined in adhesion, migration, and F-actin polymerization of LICs, each of which is independently important for the retention of LICs in BM niches. Retroviral transduction of an MLL-AF9 fusion cDNA together with N-Ras oncogene into normal human CD34^+cord blood cells led to the establishment of cultures of N-Ras-MA93 cells that can initiate acute myeloid leukemia in NOG mice. […] To address it, a human AML model was set up by transplanting N-RasMA93 cells into NOG mice intravenously.
# Swiss 3T3 fibroblasts = assay: actin cytoskeleton rearrangement in Swiss 3T3 fibroblasts; assay type: cell-based, murine; details: serum-starved Swiss 3T3 cells, in the presence of CASIN
# From the text: To investigate the Cdc42-dependent cytoskeleton rearrangement, Swiss 3T3 fibroblasts were used since it was abundantly elaborated in Swiss 3T3 fibroblats that bradykinin induces actin filopodia formation through activating Cdc42, whereas PDGF activates Rac1 and induces Rac-mediated membrane lamellipoidia, and LPA responsible for RhoA activation, eliciting RhoA-medicated formation of actin stress fibers and focal adhesion assembly (Ridley, A. J. et al. Cell 70, 401-410 (1992); Ridley, A. J. et al. Cell 70, 389-399 (1992); Kozma, R. et al. Mol Cell Biol 15, 1942-1952 (1995)).
# […] cells were seeded in Dulbecco's modified Eagle's medium (DMEM) supplemented with 10% calf serum on glass coverslips at a density of 10^5 cells per well in 8-well chambers. 24 hrs after cell seeding, cells were starved in serum-free DMEM for 24 h in the presence or absence of 5 μM or 10 μM CASIN for the last 2 hrs. cells then were stimulated with 5 ng/ml PDGF, 40 ng/ml LPA, or 100 ng/ml bradykinin, then fixed for immunofluorescence analysis. Immunostaining of F-actin with Rhodamine conjugated-phalloidin (Invitrogen) was carried out as described previously (Shutes, A., et al. J Biol Chem 282, 35666-35678 (2007)).
# Cdc42 = Cdc42 (Mus musculus, UniProt P60766); assay: Rho GTPase pull-down of BM cells after in vivo administration; set-up: from tissue; host or cells: bone marrow (LDBM) cells of C57Bl/6 mice; details: C57Bl/6 mice; FIG. 8a legend: BM cells harvested 20 mins after CASIN administration
# Cdc42, sequence (P60766 whole entry): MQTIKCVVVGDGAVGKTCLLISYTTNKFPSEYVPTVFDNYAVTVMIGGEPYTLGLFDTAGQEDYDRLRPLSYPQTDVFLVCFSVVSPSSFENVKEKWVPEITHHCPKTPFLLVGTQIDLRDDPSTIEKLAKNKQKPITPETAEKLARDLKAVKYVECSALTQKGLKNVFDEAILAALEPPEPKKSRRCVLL
# Protocol: FIG. 8A. CASIN inhibited Cdc42 activity in BM cells harvested from C57Bl/6 mice 20 mins after CASIN administration.
# Whether CASIN administration can induce mobilization of HSC/Ps to peripheral blood of C57Bl/6 mice, mimicking the phenotype observed in Cdc42 conditional knockout mice, was evaluated. First of all, mobilization of hematopoietic progenitor cells was examined by CFU-C assays functionally (FIG. 3a). […] Secondarily, to further explore the ability of CASIN to mobilize LT-HSC which is crucial for long-term repopulation of the mobilized cells, serial transplantations were carried out, where 20 million PB from CASIN-mobilized C57Bl/6 mice was transplanted into primary recipient of NOD/SCID mice, and subsequent secondary and tertiary transplants were finished as well using prior BMs (FIG. 3c). Donor chimerisms were assessed by using H2K^b congenic marker which is positive for donors of C57Bl/6 strain and negative for recipients of NOD/SCID strain. […] Therefore, the studies show CASIN can efficiently mobilize colony-forming hematopoietic progenitors and LT-HSCs with self-renewal and multi-lineage differentiation capacity. Thirdly, to further investigate the potential of CASIN to vacate the BM niche after mobilization, six-color staining of the BM cells was performed from C57Bl/6 mice with or without CASIN treatment followed by FACS analysis. […]
# Rho = Rho (Homo sapiens, UniProt P61586); assay: nucleotide exchange: Large-induced exchange of mant-GDP with Rho; assay type: biochemical
# Rho, sequence (P61586 whole entry): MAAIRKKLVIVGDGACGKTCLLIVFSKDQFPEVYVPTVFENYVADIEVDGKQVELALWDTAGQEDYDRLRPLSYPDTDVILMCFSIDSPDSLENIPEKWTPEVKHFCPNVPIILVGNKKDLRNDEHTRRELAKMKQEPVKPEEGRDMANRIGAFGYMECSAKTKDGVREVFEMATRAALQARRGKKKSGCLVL
# From the text: For example, even at 10 times the IC50 of Cdc42, a 50% inhibition of the association of mant-GDP with Rac or Rho was not achieved.
# [1] = test system: leukemia initiating cells (LICs); assay type: in vivo
# From the text: as §1
# C57BL/6, NOD/SCID, NOD/SCID-SGM3 and NOD/SCIDγC−/− (NOG) were in house bred in the animal barrier facility of Cincinnati Children's Hospital Medical Center (CCHMC) and used at the age of 6-8 weeks old. Cultured N-RasMA93 cells were injected into NOD/SCIDγC−/− mice by tail vein. […]
structure (smiles),measurement,setting,value
OCCNC1CCCc2c1[nH]c1ccc(-c3ccccc3)cc21 (stereo not drawn) [CASIN],F-actin reorganization capacity of N-RasMA93 cells,N-RasMA93 cells,significantly impaired
same,LPA-induced actin stress fiber formation,Swiss 3T3 fibroblasts,still induced their respective changes in actin reorganization
same,PDGF-induced lamellipodia formation,Swiss 3T3 fibroblasts,still induced their respective changes in actin reorganization
same,bradykinin-induced filopodia formation,Swiss 3T3 fibroblasts,suppressed completely
same,Cdc42 activity in LDBM cells after in vivo administration,Cdc42,really down
same,Large induced nucleotide exchange of mant-GDP with Rho,Rho; FIG. 6,did not affect
same,inhibition of the association of mant-GDP with Rho,Rho; at 10 times the IC50 of Cdc42,< 50%
same,apoptosis or cell death of leukemia cells in vivo,[1]; in vivo,did not elicit significant apoptosis or cell death
same,mobilization of LICs to the peripheral blood,"[1]; intravenous, by 20 min post injection",efficiently mobilized the LICs to the peripheral blood transiently

# Reference: patent US9433663B2, “Mobilization of hematopoietic stem cells” (Children's Hospital Medical Center, priority 2008, dated 2016)
